The source of these data is patent US20240115744A1, “FIBRIN-BINDING COMPOUNDS FOR IMAGING AND TREATMENT” (Collagen Medical, LLC, priority 2019, published 2024).

*1 amine or outer side, *2 acyl side, *3 side chain or, on linkers, in order; H or OH if unused. Where a SMILES comes first, the peptide text is derived from it. Bridges are numbered along the chain shown (N, C = ends). [ ]: non-standard residue; d: D form. The star is where a group is joined. NODAGA = O=C(O)CN1CCN(CC(=O)O)CCN(C(CCC(=O)*)C(=O)O)CC1; Tyr(3-Cl) = N[C@@H](Cc1ccc(O)c(Cl)c1)C(=O)O; Nicotinoyl(6-F) = O=C(c1ccc(F)nc1)*; X1 = O=C([C@@H]1CC(O)CN1[*:1])[*:2]; Hyp = O=C(O)[C@@H]1C[C@@H](O)CN1

Data set [1] is described as follows: Stability in rat plasma at 37° C. up to 4 h. The data set is classed as in vitro ADME. Conditions: after 4 h. As to the method:
The six compounds identified in Example 3 (Compounds 2, 3, 4, 5, 6, and 7) were assayed for stability in rat plasma at 37° C. for up to 4 h. Compounds were dissolved in DMSO to a make a stock solution (0.6 mM). Plasma (995 μL) was spiked with peptide stock solution (5 μL). Incubations were carried at a test compound concentration of 3 μM with a final DMSO concentration of […]. The spiked plasma samples were incubated at 37° C. for 4 h. Aliquots (300 μL) were removed at 0, 0.5, 1, 2 and 4 h and reactions were terminated by adding 600 μL of cold acetonitrile with 0.1% formic acid containing carbutamide (25 μg/mL) as an internal standard. Simultaneously, a plasma sample (995 μL) containing a mixture of benfluorex, propranolol and nortriptyline (40 μM in DMSO) control compounds was also incubated alongside each batch of test compounds and terminated similarly. […] Following centrifugation, the concentration of the compound of interest in the supernatant was quantified by LCMS. […] The peak area for each detected compound was measured to determine the % remaining of each compound and the result was compared with standards of pure compound and compound immediately isolated from plasma (t=0 sample). All assay samples were analyzed in triplicate. […]

The target of data set [2] is T1, soluble fibrin fragment DD(E) (Homo sapiens, UniProt P02671+P02675+P02679, DEL433-453).
T1 construct: partial plasmin digestion of purified fibrin gel followed by size-exclusion chromatographic purification; made in house
The experiment in a line: Fluorescence polarization DD(E) binding/displacement assay. Conditions: for Ki: displacement of TRITC-labelled peptide from DD(E), TBS·Ca with 2% DMSO, estimated uncertainty ±10%, read-out: Ki; for Kd: sub-micromolar affinity, read-out: affinity (Kd) to fibrin as assessed by DD(E) assay. On the procedure:
DD(E) was prepared using a published procedure which involved partial plasmin digestion of purified fibrin gel followed by size-exclusion chromatographic purification, and purity was assessed by SDS-PAGE. Peptides modified at the N-terminus with tetramethyl-rhodamine (TRITC) dye bind to DD(E). Direct fluorescent peptide binding to DD(E) was measured by a fluorescence polarization (FP) assay. The anisotropy (robs) of the fluorescently labeled peptides binding to DD(E) (0-20 μM) was measured in Tris buffered saline (50 mM Tris, 100 mM NaCl and 2 mM CaCl2) at fixed compound concentrations, and the data were fit to a single site model (Eq. 1) to obtain the dissociation constant (Kd) for the DD(E)·(fluorescent peptide) complex.
Displacement of the fluorescent peptide by non-fluorescent compound was measured to determine inhibition constants (Ki). In the presence of an inhibitor, an apparent dissociation constant for the fluorescent compound (Kd app) is determined using Eq. 2. The inhibition constant Ki is related to Kd app by Eq. 2, wherein Kd is the true dissociation constant of the fluorescent compound measured in the absence of inhibitor.
Non-labeled peptide binding to DD(E) was measured by a compound displacement assay, where a DD(E)/Fl·pep complex formed at fixed concentrations of DD(E) and Fl·pep was titrated with increasing concentrations of unlabeled compound. The compound was assayed by mixing DD(E) (4.0 μM, 10 μL) and TRITC (0.1 μM, 10 μL) with increasing concentrations of competing peptide (0.4-100 μM, 20 μL) in TBS·Ca with 2% DMSO in a final volume of 40 μL. Fluorescence polarization of the samples (10 μL, triplicate wells) in ascending concentrations was measured in a 384-well microplate (Corning flat black plate), using a Tecan Infinite 200 Pro fluorescence microplate reader equipped with fluorescence polarization filters, a 535 nm excitation filter and a 590 nm fluorescence emission filter. Average polarization (mP units) readings for each dilution of the compound of interest was converted to anisotropy (r) using Eq. 3.
The data defined a displacement curve (robs vs. [Peptide]), and the inhibitory binding constant, Ki, was determined by least squares fitting of the data (estimated uncertainty in Ki±10%). See Table 2 for the Ki values for the Compounds from Example 1.

The nature of data set [3]: Blood analysis in rat model of carotid artery crush injury (blood clearance). It counts as in vivo. Conditions: relative to the other compounds compared. As to the method: Rat carotid endothelial injury model in vivo studies were conducted, wherein the common carotid artery is isolated and crushed briefly with a hemostat, resulting in mural thrombus formation at the site of the crush. The vessel wall fibrin is then imaged with our PET compounds. All six compounds were evaluated in this model.
Adult male Wistar rats were anesthetized by isoflurane (1-2% in medical air). Body temperature was maintained at 37° C. using a thermo-regulated heating pad. The right femoral vein and artery were cannulated for compound injection and blood sampling, respectively. Endothelial injury was induced by crush injury to the right common carotid artery (1-2 cm proximal to the carotid bifurcation) by clamping the vessel with a hemostat for 5 minutes. Immediately following the surgical procedures, rats were placed in a micro-PET/CT scanner. Compound (200-600 μL) was injected, PET-CT images were acquired, and blood samples were drawn from the femoral artery prior to compound injection and at 2, 5, 10, 15, 30, 60, 90, 120 min post injection. Tissues were harvested at the end for ex vivo analyses.
Blood samples were drawn from prior to probe injection and at 2, 5, 10, 15, 30, 60, 90, 120 min post injection. Each blood sample was weighed and counted using a gamma-counter. The activity in each sample was calculated as percent injected dose (% ID) per gram of tissue.

In data set [4] the target is T2, human fibrin (human, UniProt P02671 36-629; P02675 45-491; P02679 27-437, limits assumed).
T2 construct: also called clotted fibrin; immobilized fibrin
T2 sequence (looked up) 1: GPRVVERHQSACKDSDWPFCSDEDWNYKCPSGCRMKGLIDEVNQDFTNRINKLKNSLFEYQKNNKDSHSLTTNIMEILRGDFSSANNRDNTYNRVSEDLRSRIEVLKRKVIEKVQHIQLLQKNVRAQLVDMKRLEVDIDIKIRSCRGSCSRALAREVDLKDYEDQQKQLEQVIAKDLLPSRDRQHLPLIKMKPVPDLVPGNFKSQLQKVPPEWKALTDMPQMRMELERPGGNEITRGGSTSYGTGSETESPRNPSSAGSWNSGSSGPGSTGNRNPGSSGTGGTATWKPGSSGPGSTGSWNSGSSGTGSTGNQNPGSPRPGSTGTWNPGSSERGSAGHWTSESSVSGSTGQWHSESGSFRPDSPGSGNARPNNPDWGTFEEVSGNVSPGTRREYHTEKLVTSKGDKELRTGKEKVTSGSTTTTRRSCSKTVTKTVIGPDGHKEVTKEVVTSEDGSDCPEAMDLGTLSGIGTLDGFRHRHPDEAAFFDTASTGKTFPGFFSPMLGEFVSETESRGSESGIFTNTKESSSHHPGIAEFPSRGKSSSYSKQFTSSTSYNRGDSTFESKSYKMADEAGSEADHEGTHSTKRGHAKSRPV
T2 sequence (looked up) 2: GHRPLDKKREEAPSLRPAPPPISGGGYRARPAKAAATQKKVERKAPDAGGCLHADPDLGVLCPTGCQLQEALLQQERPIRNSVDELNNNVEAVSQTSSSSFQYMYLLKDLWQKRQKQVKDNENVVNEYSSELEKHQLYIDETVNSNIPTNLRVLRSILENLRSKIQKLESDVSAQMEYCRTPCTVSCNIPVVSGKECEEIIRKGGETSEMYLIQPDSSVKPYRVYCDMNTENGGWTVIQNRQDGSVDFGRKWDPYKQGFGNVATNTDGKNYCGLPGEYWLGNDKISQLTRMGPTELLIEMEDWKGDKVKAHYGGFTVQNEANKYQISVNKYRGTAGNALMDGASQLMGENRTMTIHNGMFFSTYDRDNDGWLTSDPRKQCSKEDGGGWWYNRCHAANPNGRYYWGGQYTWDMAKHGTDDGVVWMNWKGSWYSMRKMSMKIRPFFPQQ
T2 sequence (looked up) 3: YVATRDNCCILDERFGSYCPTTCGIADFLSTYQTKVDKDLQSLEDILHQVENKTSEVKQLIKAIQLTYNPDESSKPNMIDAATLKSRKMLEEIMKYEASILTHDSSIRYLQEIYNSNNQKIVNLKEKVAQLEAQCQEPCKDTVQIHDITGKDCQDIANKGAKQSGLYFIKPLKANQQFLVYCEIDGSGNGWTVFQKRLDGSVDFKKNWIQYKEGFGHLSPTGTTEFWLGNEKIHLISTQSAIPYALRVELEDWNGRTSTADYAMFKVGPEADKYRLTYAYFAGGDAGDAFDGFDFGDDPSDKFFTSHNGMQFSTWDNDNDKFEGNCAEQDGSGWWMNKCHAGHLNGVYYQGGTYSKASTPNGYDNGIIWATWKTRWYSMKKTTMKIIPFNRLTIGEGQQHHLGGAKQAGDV
The experiment in a line: radioactivity plate assay on immobilized human fibrin, in TBS buffer. As to the method: Human fibrinogen (1 g) was dissolved in 30 mL of TBS buffer (50 mM Tris, 150 mM NaCl, 5 mM sodium citrate, pH 7.4) and dialyzed in a Slyde-a-Lyzer (20 000 MWCO, Cassette G2) at room temperature. After two changes of buffer, the fibrinogen was centrifuged (10 min, 2000×g) to remove undissolved material. Fibrinogen concentration was determined by measuring the absorbance at 280 nm. Stock fibrinogen solution concentration was 32.1 mg/mL. Fibrin plates with alternating rows of clotted fibrin and empty wells were prepared by polymerizing fibrinogen (100 μL; 2.5 mg/mL) with thrombin (1 U/mL) in TBS·citrate supplemented with 7 mM CaCl₂ in the wells of a 96 well polystyrene microtiter plate (Immulon-II®). […] Clottable protein in individual fibrinogen batches was determined by measuring 280 nm absorbance of the soluble fraction of the solution before and after thrombin treatment, and was generally ≥96% (Fibrin concentration, 7.56 μM).
An aliquot (100 μL) from a known activity (52 μCi in 10 mL TBS buffer) of Compound ¹⁸F-7 was added to a series of 12 known concentrations (0.01-50 μM) of cold Compound 7 (550 μL) in TBS buffer and mixed well to prepare 12 stock solutions. […] All aliquots from supernatants as well as an aliquot (90 μL) from each stock solution were weighed and activity of each was measured using a Cobra 5002 gamma counter. […]

Data set [5] has as its target T2, human fibrin. Briefly: radioactivity plate assay on immobilized human fibrin, in human plasma.

Broadly, the Ki is the dissociation constant of the complex between target and ligand, obtained from inhibition or displacement. One may read the Kd as the free concentration of one partner at which half of the binding sites on the other are occupied at equilibrium, for simple one-to-one binding. For `CC[C@H](C)[C@H](NC(=O)[C@H](Cc1ccc(O)cc1)NC(=O)[C@@H]1CSSC[C@H](NC(=O)[C@@H](CCC(=O)O)NC(=O)[C@H](Cc2ccc(O)cc2)NC(=O)c2ccc(F)nc2)C(=O)N2C[C@H](O)C[C@H]2C(=O)N[C@@H](Cc2ccc(O)c(Cl)c2)C(=O)NCC(=O)N[C@@H](CC(C)C)C(=O)N1)C(=O)N[C@@H](CCC(N)=O)C(N)=O` [Compound 7, -Y-e-C-Hyp-Y(3-Cl)-G-L-C-Y-I-Q-] ({Nicotinoyl(6-F)}-Y[dE]C[Hyp][Tyr(3-Cl)]GLCYIQ-NH2; disulfide 3-8), in data set [1], the “stability in rat plasma” value was “greatest stability”. Further, in data set [2], the Ki was 580 nM and the Kd is less than 600 nM.
As to `CC[C@H](C)[C@H](NC(=O)[C@H](Cc1cnc[nH]1)NC(=O)[C@@H]1CSSC[C@H](NC(=O)[C@@H](CCC(=O)O)NC(=O)[C@@H](Cc2ccc(O)cc2)NC(=O)CCC(C(=O)O)N2CCN(CC(=O)O)CCN(CC(=O)O)CC2)C(=O)N2CC(O)C[C@H]2C(=O)N[C@@H](Cc2ccc(O)c(Cl)c2)C(=O)NCC(=O)N[C@@H](CC(C)C)C(=O)N1)C(=O)N[C@@H](CCC(N)=O)C(N)=O` (stereo partly shown) [Compound ^68Ga-19, metal not drawn] ({NODAGA}-[dY][dE]C[X1][Tyr(3-Cl)]GLCHIQ-NH2; disulfide 3-8), in data set [3] (rat carotid artery crush injury, 2-120 min post injection), the blood clearance result is given as “faster blood clearance”. The metabolic stability entry in data set [3] (rat) is on record as “better metabolic stability”.
On to `CC[C@H](C)[C@H](NC(=O)[C@H](Cc1ccc(O)cc1)NC(=O)[C@@H]1CSSC[C@H](NC(=O)[C@@H](CCC(=O)O)NC(=O)[C@@H](Cc2ccc(O)cc2)NC(=O)c2ccc(F)nc2)C(=O)N2C[C@H](O)C[C@H]2C(=O)N[C@@H](Cc2ccc(O)c(Cl)c2)C(=O)NCC(=O)N[C@@H](CC(C)C)C(=O)N1)C(=O)N[C@@H](CCC(N)=O)C(N)=O` [Compound 6, -y-e-C-Hyp-Y(3-Cl)-G-L-C-Y-I-Q-] ({Nicotinoyl(6-F)}-[dY][dE]C[Hyp][Tyr(3-Cl)]GLCYIQ-NH2; disulfide 3-8), for which the “stability in rat plasma” value in data set [1] is “greatest stability”. Also, in data set [2], the Ki was 340 nM and the Kd is less than 600 nM.

B1: Compound 18F-7 (peptide)
peptide: {6‑(18F)fluoronicotinoyl}-Y[dE]C[Hyp][Tyr(3-Cl)]GLCYIQ-NH2
modifications: disulfide 3-8
notes: In the plate assay the tracer was mixed with 0.01-50 µM cold Compound 7; also called the fluorine-18 form of Compound 7
Turning to B1, the Kd was determined as 1600 nM with human fibrin [4] and 1800 nM with human fibrin [5].
